In PubChem BioAssay (NCI):
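Step 1: Grow cells in 96-well plates. Step 2: Expose to compound for 48 hours at 5 concentrations. Step 3: Interpolate endpoints linearly; if unreached, use highest concentration. The concentration for 50% growth inhibition is given as GI50. TGI is the concentration that stops growth completely.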

Tests used:
Assay in all cases: NCI-60 cell line screen, 48 h
[1] = system: 786-0 renal
[2] = system: A498 renal
[3] = system: A549 NSCLC
[4] = system: ACHN renal
[5] = system: BT-549 breast
[6] = system: CAKI-1 renal
[7] = system: CCRF-CEM leukemia
[8] = system: DU-145 prostate
[9] = system: EKVX NSCLC
[10] = system: HCC-2998 colon
[11] = system: HCT-15 colon
[12] = system: HL-60(TB) leukemia
[13] = system: HOP-62 NSCLC
[14] = system: HOP-92 NSCLC
[15] = system: HS 578T breast
[16] = system: HT29 colon
[17] = system: IGROV1 ovarian
[18] = system: K-562 leukemia
[19] = system: KM12 colon
[20] = system: M14 melanoma
[21] = system: MALME-3M melanoma
[22] = system: MCF7 breast
[23] = system: MDA-MB-231 breast
[24] = system: MDA-MB-435
[25] = system: MOLT-4 leukemia
[26] = system: NCI-H226 lung
[27] = system: NCI-H460 lung
[28] = system: OVCAR-3 ovarian
[29] = system: OVCAR-4 ovarian
[30] = system: OVCAR-5 ovarian
[31] = system: OVCAR-8 ovarian
[32] = system: PC-3 prostate
[33] = system: RPMI-8226 leukemia
[34] = system: RXF 393 renal
[35] = system: SF-268 CNS
[36] = system: SF-295 CNS
[37] = system: SF-539 CNS
[38] = system: SK-MEL-2 melanoma
[39] = system: SK-MEL-28 melanoma
[40] = system: SK-MEL-5 melanoma
[41] = system: SK-OV-3 ovarian
[42] = system: SN12C renal
[43] = system: SNB-19 CNS
[44] = system: SNB-75 CNS
[45] = system: SR leukemia
[46] = system: SW-620 colon
[47] = system: T-47D breast
[48] = system: TK-10 renal
[49] = system: U251 CNS
[50] = system: UACC-257 melanoma
[51] = system: UACC-62 melanoma
[52] = system: UO-31 renal

CC1(C)[C@@H](O)CC[C@]2(C)[C@H]3CC[C@@H]4[C@H]5[C@H](C(=O)/C=C\c6ccccn6)CC[C@]5(O)CC[C@@]4(C)[C@]3(C)CC[C@@H]12
GI50 [1]: 2.23 µM | TGI [1]: 4.73 µM | GI50 [2]: 1.66 µM | TGI [2]: 4.33 µM | GI50 [3]: 2.77 µM | TGI [3]: 9.37 µM | GI50 [4]: 2.33 µM | TGI [4]: 6.28 µM | GI50 [5]: 1.96 µM | TGI [5]: 3.57 µM | GI50 [6]: 2.02 µM | TGI [6]: 8.4 µM | GI50 [7]: 2.06 µM | TGI [7]: 8.51 µM | GI50 [8]: 1.75 µM | TGI [8]: 3.52 µM | GI50 [9]: 2.62 µM | TGI [9]: 13.3 µM | GI50 [10]: 1.94 µM | TGI [10]: 3.52 µM | GI50 [11]: 1.9 µM | TGI [11]: 5.52 µM | GI50 [12]: 1.81 µM | TGI [12]: 5.74 µM | GI50 [13]: 1.8 µM | TGI [13]: 4.99 µM | GI50 [14]: 1.34 µM | TGI [14]: 3.74 µM | GI50 [15]: 6.84 µM | TGI [15]: > 100 µM | GI50 [16]: 3.33 µM | TGI [16]: > 100 µM | GI50 [17]: 1.9 µM | TGI [17]: 4.07 µM | GI50 [18]: 2.25 µM | TGI [18]: > 100 µM | GI50 [19]: 1.85 µM | TGI [19]: 3.96 µM | GI50 [20]: 2.26 µM | TGI [20]: 5.87 µM | GI50 [21]: 2.16 µM | TGI [21]: 4.78 µM | GI50 [22]: 0.768 µM | TGI [22]: 4.54 µM | GI50 [23]: 3.04 µM | TGI [23]: > 100 µM | GI50 [24]: 1.76 µM | TGI [24]: 3.75 µM | GI50 [25]: 2.39 µM | TGI [25]: > 100 µM | GI50 [26]: 3.05 µM | TGI [26]: 34.5 µM | GI50 [27]: 1.9 µM | TGI [27]: 4.83 µM | GI50 [28]: 1.87 µM | TGI [28]: 4.89 µM | GI50 [29]: 3.92 µM | TGI [29]: 46.4 µM | GI50 [30]: 2.89 µM | TGI [30]: 7.92 µM | GI50 [31]: 3.37 µM | TGI [31]: > 100 µM | GI50 [32]: 2.1 µM | TGI [32]: 6.24 µM | GI50 [33]: 1.76 µM | TGI [33]: 5.35 µM | GI50 [34]: 1.74 µM | TGI [34]: 3.15 µM | GI50 [35]: 2.38 µM | TGI [35]: 8.44 µM | GI50 [36]: 2.61 µM | TGI [36]: 8.55 µM | GI50 [37]: 2.34 µM | TGI [37]: 6.34 µM | GI50 [38]: 2.61 µM | TGI [38]: 7.18 µM | GI50 [39]: 2.04 µM | TGI [39]: 4.13 µM | GI50 [40]: 1.63 µM | TGI [40]: 3.05 µM | GI50 [41]: 5.35 µM | TGI [41]: 30.7 µM | GI50 [42]: 3.08 µM | TGI [42]: > 100 µM | GI50 [43]: 2.77 µM | TGI [43]: 10.8 µM | GI50 [44]: 7.59 µM | TGI [44]: > 100 µM | GI50 [45]: 1.71 µM | TGI [45]: 14.5 µM | GI50 [46]: 1.93 µM | TGI [46]: 4.85 µM | GI50 [47]: 1.52 µM | TGI [47]: 8.62 µM | GI50 [48]: 3.23 µM | TGI [48]: 9.31 µM | GI50 [49]: 1.61 µM | TGI [49]: 3.1 µM | GI50 [50]: 3.25 µM | TGI [50]: 39.2 µM | GI50 [51]: 1.74 µM | TGI [51]: 3.95 µM | GI50 [52]: 1.6 µM | TGI [52]: 3.23 µM
